In ChEMBL document CHEMBL4364295, “Discovery of a First-in-Class Receptor Interacting Protein 2 (RIP2) Kinase Specific Clinical Candidate, 2-((4-(Benzo[d]thiazol-5-ylamino)-6-(tert-butylsulfonyl)quinazolin-7-yl)oxy)ethyl Dihydrogen Phosphate, for the Treatment of Inflammatory Diseases” (J Med Chem, 2019):
Values belong to the compound of their own block, whether it stands above or below them.

Experiments:
[1] = Drug uptake in Han Wistar rat brain at 2 mg/kg, iv administered as infusion for 4 hrs; assay type: ADME, organism-based; conditions: in vivo
[2] = Drug uptake in Han Wistar rat skin at 2 mg/kg, iv administered as infusion for 4 hrs; assay type: ADME, organism-based, Zone of skin; conditions: in vivo
[3] = Drug uptake in Sprague-Dawley rat systemic circulation at 2 mg/kg, po or 1.1 mg/kg, iv by LC/MS/MS analysis; assay type: ADME, organism-based; conditions: in vivo
[4] = Prodrug conversion in human hepatocytes assessed as dephosphorylation at 20 uM measured after 4 hrs; assay type: ADME, cell-based, Hepatocyte
[5] = Prodrug conversion in human hepatocytes assessed as hydrogenation at 20 uM measured after 4 hrs; assay type: ADME, cell-based, Hepatocyte
[6] = Prodrug conversion in human hepatocytes assessed as 2-(4-(benzo[d]thiazol-5-ylamino)-6-(tert-butylsulfonyl)quinazolin-7-yloxy)acetic acid formation at 20 uM measured after 4 hrs; assay type: ADME, cell-based, Hepatocyte
[7] = Prodrug conversion in rat hepatocytes assessed as hydrogenation at 20 uM measured after 4 hrs; assay type: ADME, cell-based, Hepatocyte
[8] = Half life in human intestinal S9 fraction; assay type: ADME, subcellular, Intestine
[9] = Prodrug conversion in minipig hepatocytes assessed as oxidation at 20 uM measured after 4 hrs; assay type: ADME, cell-based, Sus scrofa, Hepatocyte; conditions: pig
[10] = Prodrug conversion in minipig hepatocytes assessed as (2S,3S,4S,5R,6R)-6-(2-(4-(benzo[d]thiazol-5-ylamino)-6-(tert-butylsulfonyl)quinazolin-7-yloxy)ethoxy)-3,4,5-trihydroxytetrahydro-2H-pyran-2-carboxylic acid formation at 20 uM measured after 4 hrs; assay type: ADME, cell-based, Sus scrofa, Hepatocyte; conditions: pig
[11] = Oral bioavailability in Sprague-Dawley rat assessed as 2-((4-(Benzo[d]thiazol-5-ylamino)-6-(tert-butylsulfonyl)quinazolin-7-yl)oxy)ethanol level at 2 mg/kg by LC/MS/MS analysis; assay type: ADME, organism-based; conditions: in vivo
[12] = Oral bioavailability in Beagle dog assessed as 2-((4-(Benzo[d]thiazol-5-ylamino)-6-(tert-butylsulfonyl)quinazolin-7-yl)oxy)ethanol level at 2 mg/kg by LC/MS/MS analysis; assay type: ADME, organism-based, Canis lupus familiaris; conditions: in vivo
[13] = Solubility of the compound in FeSSIF; assay type: physicochemical; conditions: simulated gi fluid
[14] = Prodrug conversion in rat hepatocytes assessed as (2S,3S,4S,5R,6R)-6-(2-(4-(benzo[d]thiazol-5-ylamino)-6-(tert-butylsulfonyl)quinazolin-7-yloxy)ethoxy)-3,4,5-trihydroxytetrahydro-2H-pyran-2-carboxylic acid formation at 20 uM measured after 4 hrs; assay type: ADME, cell-based, Hepatocyte
[15] = Toxicity in Gottingen minipig during 6 week study; parameters: species or system Sus scrofa; conditions: pig, in vivo, 1008 h
[16] = Volume of distribution at steady state in Sprague-Dawley rat assessed as 2-((4-(Benzo[d]thiazol-5-ylamino)-6-(tert-butylsulfonyl)quinazolin-7-yl)oxy)ethanol level at 2 mg/kg, po or 1.1 mg/kg, iv by LC/MS/MS analysis; assay type: ADME, organism-based; conditions: in vivo
[17] = Prodrug conversion in minipig hepatocytes assessed as 2-(4-(benzo[d]thiazol-5-ylamino)-6-(tert-butylsulfonyl)quinazolin-7-yloxy)acetic acid formation at 20 uM measured after 4 hrs; assay type: ADME, cell-based, Sus scrofa, Hepatocyte; conditions: pig
[18] = Drug uptake in Gottingen minipig systemic circulation at 2 mg/kg, po or 1 mg/kg, iv by LC/MS/MS analysis; assay type: ADME, organism-based, Sus scrofa; conditions: pig, in vivo
[19] = Oral bioavailability in Gottingen minipig assessed as 2-((4-(Benzo[d]thiazol-5-ylamino)-6-(tert-butylsulfonyl)quinazolin-7-yl)oxy)ethanol level at 1 mg/kg by LC/MS/MS analysis; assay type: ADME, organism-based, Sus scrofa; conditions: pig, in vivo
[20] = Half life in dog intestinal S9 fraction; assay type: ADME, subcellular, Canis lupus familiaris, Intestine
[21] = Terminal half life in Gottingen minipig assessed as 2-((4-(Benzo[d]thiazol-5-ylamino)-6-(tert-butylsulfonyl)quinazolin-7-yl)oxy)ethanol level at 2 mg/kg, po or 1 mg/kg, iv by LC/MS/MS analysis; assay type: ADME, organism-based, Sus scrofa; conditions: pig, in vivo
[22] = Prodrug conversion in minipig hepatocytes assessed as hydrogenation at 20 uM measured after 4 hrs; assay type: ADME, cell-based, Sus scrofa, Hepatocyte; conditions: pig
[23] = Prodrug conversion in human hepatocytes assessed as oxidation at 20 uM measured after 4 hrs; assay type: ADME, cell-based, Hepatocyte
[24] = Volume of distribution at steady state in Gottingen minipig assessed as 2-((4-(Benzo[d]thiazol-5-ylamino)-6-(tert-butylsulfonyl)quinazolin-7-yl)oxy)ethanol level at 2 mg/kg, po or 1 mg/kg, iv by LC/MS/MS analysis; assay type: ADME, organism-based, Sus scrofa; conditions: pig, in vivo
[25] = Prodrug conversion in human hepatocytes assessed as benzothiazole ring opening at 20 uM measured after 4 hrs; assay type: ADME, cell-based, Hepatocyte
[26] = Cmax in Gottingen minipig assessed as 2-((4-(Benzo[d]thiazol-5-ylamino)-6-(tert-butylsulfonyl)quinazolin-7-yl)oxy)ethanol level at 1 mg/kg, po by LC/MS/MS analysis; assay type: ADME, organism-based, Sus scrofa; parameters: dose 1 mg/kg, route oral; conditions: pig, in vivo
[27] = Prodrug conversion in rat hepatocytes assessed as 2-(4-(benzo[d]thiazol-5-ylamino)-6-(tert-butylsulfonyl)quinazolin-7-yloxy)acetic acid formation at 20 uM measured after 4 hrs; assay type: ADME, cell-based, Hepatocyte
[28] = Prodrug conversion in rat hepatocytes assessed as benzothiazole ring opening at 20 uM measured after 4 hrs; assay type: ADME, cell-based, Hepatocyte
[29] = Half life in rat intestinal S9 fraction; assay type: ADME, subcellular, Intestine
[30] = Clearance in Beagle dog at 2 mg/kg, po or 1.1 mg/kg, iv by LC/MS/MS analysis; assay type: ADME, organism-based, Canis lupus familiaris; conditions: in vivo
[31] = AUC in Gottingen minipig at 1 mg/kg, po by LC/MS/MS analysis; assay type: ADME, organism-based, Sus scrofa; conditions: pig, in vivo
[32] = target: Serine/threonine-protein kinase 10 (Homo sapiens) (UniProt O94804); test: Inhibition of human STK10 at 1 uM using RLGRDKYKTLRQIRQ as substrate in presence of [gamma-33P]ATP relative to control
Chain of Serine/threonine-protein kinase 10 (Homo sapiens) (O94804 whole entry, looked up): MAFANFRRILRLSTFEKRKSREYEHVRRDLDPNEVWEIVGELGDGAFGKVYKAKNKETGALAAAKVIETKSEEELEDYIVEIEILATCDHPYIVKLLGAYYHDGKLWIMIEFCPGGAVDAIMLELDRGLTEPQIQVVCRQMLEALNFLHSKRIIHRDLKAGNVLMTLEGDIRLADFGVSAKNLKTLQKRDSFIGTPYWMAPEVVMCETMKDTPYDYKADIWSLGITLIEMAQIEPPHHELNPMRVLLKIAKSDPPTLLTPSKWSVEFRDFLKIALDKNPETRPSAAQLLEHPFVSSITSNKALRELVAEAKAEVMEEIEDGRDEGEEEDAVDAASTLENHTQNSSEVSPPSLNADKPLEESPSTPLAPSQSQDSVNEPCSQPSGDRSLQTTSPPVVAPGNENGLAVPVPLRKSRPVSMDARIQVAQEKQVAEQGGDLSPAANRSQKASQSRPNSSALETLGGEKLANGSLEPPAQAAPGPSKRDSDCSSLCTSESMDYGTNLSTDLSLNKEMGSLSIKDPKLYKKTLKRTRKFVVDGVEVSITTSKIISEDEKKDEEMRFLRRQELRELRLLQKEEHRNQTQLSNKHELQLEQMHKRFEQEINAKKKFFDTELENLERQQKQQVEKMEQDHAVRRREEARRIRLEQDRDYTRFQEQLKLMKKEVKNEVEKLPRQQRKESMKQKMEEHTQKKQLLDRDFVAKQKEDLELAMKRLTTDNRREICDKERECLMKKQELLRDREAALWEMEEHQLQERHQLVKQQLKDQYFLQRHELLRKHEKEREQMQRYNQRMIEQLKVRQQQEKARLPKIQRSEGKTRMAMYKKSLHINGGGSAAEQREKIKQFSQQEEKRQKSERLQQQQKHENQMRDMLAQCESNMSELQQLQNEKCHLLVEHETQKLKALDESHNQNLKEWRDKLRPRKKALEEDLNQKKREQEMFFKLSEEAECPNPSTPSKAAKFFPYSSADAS

Intestinal mucosa = test: Antiinflammatory activity in ulcerative colitis patient derived inflamed intestinal mucosa assessed as reduction in IL6 production measured after overnight incubation by immunoassay; assay type: functional, tissue-based; conditions: Homo sapiens
[33] = Cmax in Sprague-Dawley rat at 20 mg/kg, po using crystalline sample during 7 day dose ranging study by LC/MS/MS analysis; assay type: ADME, organism-based; parameters: dose 20 mg/kg, route oral; conditions: in vivo
[34] = Clearance in dog hepatocytes; assay type: ADME, cell-based, Canis lupus familiaris, Hepatocyte
[35] = target: Receptor-interacting serine/threonine-protein kinase 2 (Homo sapiens, UniProt O43353); test: Inhibition of fluorescent-labelled ligand binding to human RIP2K preincubated for 10 mins followed by fluorescent-labelled ligand addition and measured after 10 mins by fluorescence polarization assay
Chain of Receptor-interacting serine/threonine-protein kinase 2 (O43353 whole entry): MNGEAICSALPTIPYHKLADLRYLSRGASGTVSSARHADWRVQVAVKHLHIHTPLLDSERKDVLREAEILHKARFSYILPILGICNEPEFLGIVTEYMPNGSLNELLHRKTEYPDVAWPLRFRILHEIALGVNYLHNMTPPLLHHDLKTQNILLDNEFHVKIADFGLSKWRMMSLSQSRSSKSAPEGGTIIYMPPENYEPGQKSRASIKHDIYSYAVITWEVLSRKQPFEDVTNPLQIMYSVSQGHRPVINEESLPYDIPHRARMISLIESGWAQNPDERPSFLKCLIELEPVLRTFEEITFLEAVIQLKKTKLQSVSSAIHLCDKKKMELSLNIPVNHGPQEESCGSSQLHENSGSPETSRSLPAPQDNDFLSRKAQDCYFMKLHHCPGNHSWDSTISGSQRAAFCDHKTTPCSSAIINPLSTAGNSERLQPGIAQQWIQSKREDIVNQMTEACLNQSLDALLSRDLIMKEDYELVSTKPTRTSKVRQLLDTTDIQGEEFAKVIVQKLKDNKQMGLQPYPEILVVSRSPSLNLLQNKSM

[36] = Cmax in Sprague-Dawley rat at 200 mg/kg, po using crystalline sample during 7 day dose ranging study by LC/MS/MS analysis; assay type: ADME, organism-based; parameters: dose 200 mg/kg, route oral; conditions: in vivo
[37] = target: Nucleotide-binding oligomerization domain-containing protein 2 (Homo sapiens, UniProt Q9HC29); test: Inhibition of NOD2 in human monocytes assessed as reduction in MDP-induced TNFalpha production preincubated for 30 mins followed by MDP-stimulation and measured after 6 hrs by immunoassay; assay type: cell-based
Chain of Nucleotide-binding oligomerization domain-containing protein 2 (Q9HC29 whole entry, the tested form may be a part): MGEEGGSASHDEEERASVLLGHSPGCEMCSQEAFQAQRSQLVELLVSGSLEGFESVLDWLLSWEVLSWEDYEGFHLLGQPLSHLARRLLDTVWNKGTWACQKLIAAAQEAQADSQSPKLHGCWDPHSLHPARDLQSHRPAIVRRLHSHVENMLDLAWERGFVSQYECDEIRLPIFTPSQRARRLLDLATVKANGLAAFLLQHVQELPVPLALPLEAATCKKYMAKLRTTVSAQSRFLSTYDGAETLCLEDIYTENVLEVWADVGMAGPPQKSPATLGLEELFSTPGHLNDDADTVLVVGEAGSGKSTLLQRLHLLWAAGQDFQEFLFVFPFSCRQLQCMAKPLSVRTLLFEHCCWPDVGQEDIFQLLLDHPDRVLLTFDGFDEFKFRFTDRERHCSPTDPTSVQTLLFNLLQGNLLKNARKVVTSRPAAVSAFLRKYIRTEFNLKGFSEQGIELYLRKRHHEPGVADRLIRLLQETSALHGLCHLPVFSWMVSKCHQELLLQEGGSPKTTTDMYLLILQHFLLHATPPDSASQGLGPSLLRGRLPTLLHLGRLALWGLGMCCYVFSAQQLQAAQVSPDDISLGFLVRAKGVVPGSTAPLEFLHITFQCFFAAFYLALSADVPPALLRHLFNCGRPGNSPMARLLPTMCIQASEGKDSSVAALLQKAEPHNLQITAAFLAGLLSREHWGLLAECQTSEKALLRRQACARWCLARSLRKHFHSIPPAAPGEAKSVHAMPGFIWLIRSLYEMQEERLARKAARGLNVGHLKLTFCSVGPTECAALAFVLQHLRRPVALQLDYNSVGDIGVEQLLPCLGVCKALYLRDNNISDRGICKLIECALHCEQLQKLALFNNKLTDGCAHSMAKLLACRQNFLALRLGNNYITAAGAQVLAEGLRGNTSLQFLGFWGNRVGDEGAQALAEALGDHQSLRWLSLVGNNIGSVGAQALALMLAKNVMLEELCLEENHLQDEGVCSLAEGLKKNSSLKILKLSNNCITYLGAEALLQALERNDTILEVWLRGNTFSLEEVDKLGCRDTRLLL

[38] = target: Vascular endothelial growth factor receptor 2 (Homo sapiens) (UniProt P35968); test: Inhibition of human VEGFR2 at 1 uM using poly[Glu:Tyr] (4:1) as substrate in presence of [gamma-33P]ATP relative to control
Chain of Vascular endothelial growth factor receptor 2 (Homo sapiens) (P35968 whole entry): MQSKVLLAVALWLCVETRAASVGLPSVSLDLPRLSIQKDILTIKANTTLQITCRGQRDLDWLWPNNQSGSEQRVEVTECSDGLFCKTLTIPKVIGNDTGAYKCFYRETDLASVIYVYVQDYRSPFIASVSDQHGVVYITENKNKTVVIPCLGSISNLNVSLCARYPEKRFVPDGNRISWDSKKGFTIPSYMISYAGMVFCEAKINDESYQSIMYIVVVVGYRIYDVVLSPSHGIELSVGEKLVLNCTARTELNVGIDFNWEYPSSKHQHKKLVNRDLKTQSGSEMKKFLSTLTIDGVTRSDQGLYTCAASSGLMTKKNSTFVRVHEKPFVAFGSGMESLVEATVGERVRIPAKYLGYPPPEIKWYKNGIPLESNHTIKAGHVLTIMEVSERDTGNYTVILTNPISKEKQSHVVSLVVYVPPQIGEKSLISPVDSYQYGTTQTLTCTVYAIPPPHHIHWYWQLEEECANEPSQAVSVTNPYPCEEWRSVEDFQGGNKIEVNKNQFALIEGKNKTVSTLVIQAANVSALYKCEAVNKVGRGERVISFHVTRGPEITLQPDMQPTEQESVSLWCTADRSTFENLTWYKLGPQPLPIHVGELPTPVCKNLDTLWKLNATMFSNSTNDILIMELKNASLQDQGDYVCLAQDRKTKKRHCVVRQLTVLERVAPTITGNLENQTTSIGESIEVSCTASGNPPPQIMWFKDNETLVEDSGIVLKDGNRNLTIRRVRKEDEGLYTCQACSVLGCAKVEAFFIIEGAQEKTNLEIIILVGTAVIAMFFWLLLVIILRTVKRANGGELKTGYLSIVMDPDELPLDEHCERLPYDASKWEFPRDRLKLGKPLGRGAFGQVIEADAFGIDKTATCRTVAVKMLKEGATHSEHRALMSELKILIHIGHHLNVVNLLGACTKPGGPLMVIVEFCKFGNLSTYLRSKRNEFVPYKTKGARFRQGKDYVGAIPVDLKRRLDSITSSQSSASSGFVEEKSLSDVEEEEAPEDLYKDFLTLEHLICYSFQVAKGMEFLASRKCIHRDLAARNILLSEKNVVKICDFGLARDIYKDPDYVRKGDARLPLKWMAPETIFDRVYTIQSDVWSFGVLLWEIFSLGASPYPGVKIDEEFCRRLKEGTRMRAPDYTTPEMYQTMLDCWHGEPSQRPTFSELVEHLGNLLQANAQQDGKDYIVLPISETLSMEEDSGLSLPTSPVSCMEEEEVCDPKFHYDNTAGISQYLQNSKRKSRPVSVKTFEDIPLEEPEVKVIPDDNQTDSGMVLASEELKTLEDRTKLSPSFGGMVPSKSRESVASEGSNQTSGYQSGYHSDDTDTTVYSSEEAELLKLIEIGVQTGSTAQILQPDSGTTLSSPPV

[39] = Cmax in Gottingen minipig at 1 mg/kg, po by LC/MS/MS analysis; assay type: ADME, organism-based, Sus scrofa; parameters: dose 1 mg/kg, route oral; conditions: pig, in vivo
[40] = Clearance in minipig hepatocytes; assay type: ADME, cell-based, Sus scrofa, Hepatocyte; conditions: pig
[41] = Clearance in Sprague-Dawley rat at 2 mg/kg, po or 0.5 mg/kg, iv by LC/MS/MS analysis; assay type: ADME, organism-based; conditions: in vivo

Drug uptake [1]: Not Active | Drug uptake [2]: Not Active | Drug uptake [3]: Not Active | Drug metabolism [4]: Metabolite_Detected | Drug metabolism [5]: Metabolite_Detected | Drug metabolism [6]: Metabolite_Detected | Drug metabolism [7]: Metabolite_Detected | half-life [8]: 18.3 min | Drug metabolism [9]: Metabolite_Detected | Drug metabolism [10]: Metabolite_Detected | F [11]: 77% | F [12]: 100% | solubility [13]: Soluble | Drug metabolism [14]: Metabolite_Detected | Vdss [16]: 2.1 L/kg | Drug metabolism [17]: Metabolite_Detected | Drug uptake [18]: Not Active | F [19]: 58% | half-life [20]: 8 min | beta t1/2 [21]: 252 min | Drug metabolism [22]: Metabolite_Detected | Drug metabolism [23]: Metabolite_Detected | Vdss [24]: 2.1 L/kg | Drug metabolism [25]: Metabolite_Detected | Cmax [26]: 340 ng/mL | Drug metabolism [27]: Metabolite_Detected | Drug metabolism [28]: Metabolite_Detected | half-life [29]: 3.3 min
Compound: CC(C)(C)S(=O)(=O)c1cc2c(Nc3ccc4scnc4c3)ncnc2cc1OCCOP(=O)(O)O.[CaH2]
Activity [15]: Non-Toxic

clearance [30]: 9.9 mL/min/kg | AUC [31]: 85 ng·h/mL | inhibition [32]: 70 to 90% | Cmax [33]: 900 ng/mL | CLH [34]: 0.65 mL/min/g | IC50 [35]: 5 nM | Cmax [36]: 4900 ng/mL | inhibition [37]: Dose-dependent effect | inhibition [38]: 70 to 90% | Cmax [39]: 31 ng/mL | CLH [40]: 0.55 mL/min/g | clearance [41]: 27 mL/min/kg
Compound: CC(C)(C)S(=O)(=O)c1cc2c(Nc3ccc4scnc4c3)ncnc2cc1OCCO
Activity (Intestinal mucosa): Dose-dependent effect | IC50 (Intestinal mucosa): 10 nM
